Results reported in PubChem BioAssay AID1963424 (Molecular Pharmacology Branch, DTP, NCI, 2024).

Tested on: 327498-153-R-J2-PDC complex spheroid growth, % test/control
Assay: Anticancer human tumor 327498-153-R-J2-PDC patient-derived uterine carcinosarcoma cell line growth inhibition [Asc]
Details: for IC50: curve of first compound; for viability, T/C: stronger effect = lower value; active means viability on the fitted dose curve at most 10% of control; inactive means the rest
Summary of the method: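 Spheroid model: tumor line + HUVEC + hMSC. Single agents and combinations; top conc. at/near clinical Cmax (10 microM if undetermined), half-log dilutions. DMSO stocks at 800-fold test concentration.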

[1] = second compound 0.01 µM, first compound 0.0316 µM
[2] = second compound 0.01 µM, first compound 0.1 µM
[3] = second compound 0.01 µM, first compound 0.316 µM
[4] = second compound 0.01 µM, first compound 1 µM
[5] = second compound 0.01 µM, first compound 3.16 µM
[6] = second compound 0.01 µM, first compound 10 µM
[7] = second compound 0.0316 µM, first compound 0.0316 µM
[8] = second compound 0.0316 µM, first compound 0.1 µM
[9] = second compound 0.0316 µM, first compound 0.316 µM
[10] = second compound 0.0316 µM, first compound 1 µM
[11] = second compound 0.0316 µM, first compound 3.16 µM
[12] = second compound 0.0316 µM, first compound 10 µM
[13] = second compound 0.1 µM, first compound 0.0316 µM
[14] = second compound 0.1 µM, first compound 0.1 µM
[15] = second compound 0.1 µM, first compound 0.316 µM
[16] = second compound 0.1 µM, first compound 1 µM
[17] = second compound 0.1 µM, first compound 3.16 µM
[18] = second compound 0.1 µM, first compound 10 µM
[19] = second compound 0.316 µM, first compound 0.0316 µM
[20] = second compound 0.316 µM, first compound 0.1 µM
[21] = second compound 0.316 µM, first compound 0.316 µM
[22] = second compound 0.316 µM, first compound 1 µM
[23] = second compound 0.316 µM, first compound 3.16 µM
[24] = second compound 0.316 µM, first compound 10 µM
[25] = second compound 1 µM, first compound 0.0316 µM
[26] = second compound 1 µM, first compound 0.1 µM
[27] = second compound 1 µM, first compound 0.316 µM
[28] = second compound 1 µM, first compound 1 µM
[29] = second compound 1 µM, first compound 3.16 µM
[30] = second compound 1 µM, first compound 10 µM
[31] = second compound 0.01 µM, first compound 0.00949 µM
[32] = second compound 0.01 µM, first compound 0.03 µM
[33] = second compound 0.01 µM, first compound 0.0949 µM
[34] = second compound 0.01 µM, first compound 0.3 µM
[35] = second compound 0.01 µM, first compound 0.949 µM
[36] = second compound 0.01 µM, first compound 3 µM
[37] = second compound 0.0316 µM, first compound 0.00949 µM
[38] = second compound 0.0316 µM, first compound 0.03 µM
[39] = second compound 0.0316 µM, first compound 0.0949 µM
[40] = second compound 0.0316 µM, first compound 0.3 µM
[41] = second compound 0.0316 µM, first compound 0.949 µM
[42] = second compound 0.0316 µM, first compound 3 µM
[43] = second compound 0.1 µM, first compound 0.00949 µM
[44] = second compound 0.1 µM, first compound 0.03 µM
[45] = second compound 0.1 µM, first compound 0.0949 µM
[46] = second compound 0.1 µM, first compound 0.3 µM
[47] = second compound 0.1 µM, first compound 0.949 µM
[48] = second compound 0.1 µM, first compound 3 µM
[49] = second compound 0.316 µM, first compound 0.00949 µM
[50] = second compound 0.316 µM, first compound 0.03 µM
[51] = second compound 0.316 µM, first compound 0.0949 µM
[52] = second compound 0.316 µM, first compound 0.3 µM
[53] = second compound 0.316 µM, first compound 0.949 µM
[54] = second compound 0.316 µM, first compound 3 µM
[55] = second compound 1 µM, first compound 0.00949 µM
[56] = second compound 1 µM, first compound 0.03 µM
[57] = second compound 1 µM, first compound 0.0949 µM
[58] = second compound 1 µM, first compound 0.3 µM
[59] = second compound 1 µM, first compound 0.949 µM
[60] = second compound 1 µM, first compound 3 µM
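Further: spheroids exposed to compound for 7 days after 3 days of growth.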
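Wherever viability, T/C is given: 100% = DMSO vehicle control wells.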

C#Cc1c(F)ccc2cc(O)cc(-c3ncc4c(N5CC6CCC(C5)N6)nc(OCC56CCCN5CC(F)C6)nc4c3F)c12 (stereo not given) + CNC(C)C(=O)NC1CN(S(=O)(=O)c2cccc(S(=O)(=O)N3CCC4CCC(C(=O)NC(c5ccccc5)c5ccccc5)N4C(=O)C(NC(=O)C(C)NC)C3)c2)CCC2CCC(C(=O)NC(c3ccccc3)c3ccccc3)N2C1=O
> 10 µM: IC50 (second compound 0.01 µM) | IC50 (second compound 0.0316 µM) | IC50 (second compound 0.1 µM) | IC50 (second compound 0.316 µM) | IC50 (second compound 1 µM)
inactive: viability, T/C [1] 102% | viability, T/C [2] 97.8% | viability, T/C [3] 95.8% | viability, T/C [4] 88.6% | viability, T/C [5] 68.8% | viability, T/C [6] 53% | viability, T/C [7] 103% | viability, T/C [8] 97.3% | viability, T/C [9] 102% | viability, T/C [10] 77% | viability, T/C [11] 61.9% | viability, T/C [12] 55.1% | viability, T/C [13] 103% | viability, T/C [14] 95.4% | viability, T/C [15] 97.5% | viability, T/C [16] 82.8% | viability, T/C [17] 69.4% | viability, T/C [18] 61.9% | viability, T/C [19] 106% | viability, T/C [20] 104% | viability, T/C [21] 92.4% | viability, T/C [22] 82.3% | viability, T/C [23] 74.5% | viability, T/C [24] 55.6% | viability, T/C [25] 96.3% | viability, T/C [26] 96.1% | viability, T/C [27] 97% | viability, T/C [28] 84.9% | viability, T/C [29] 74% | viability, T/C [30] 67%

C=C(F)C(=O)N1CCN(c2nc(OCC3CCCN3C)nc3c2CCN(c2cccc4cccc(Cl)c24)C3)CC1CC#N (stereo not given) + CNC(C)C(=O)NC1CN(S(=O)(=O)c2cccc(S(=O)(=O)N3CCC4CCC(C(=O)NC(c5ccccc5)c5ccccc5)N4C(=O)C(NC(=O)C(C)NC)C3)c2)CCC2CCC(C(=O)NC(c3ccccc3)c3ccccc3)N2C1=O
1.31 µM: IC50 (second compound 0.01 µM)
1.35 µM: IC50 (second compound 0.1 µM)
active: viability, T/C [6] 0.14% | viability, T/C [12] 0.14% | viability, T/C [18] 0.13% | viability, T/C [24] 0.14% | viability, T/C [30] 0.21%
0.985 µM: IC50 (second compound 1 µM)
inactive: viability, T/C [1] 74.3% | viability, T/C [2] 71% | viability, T/C [3] 58.4% | viability, T/C [4] 61.6% | viability, T/C [5] 14.5% | viability, T/C [7] 73.2% | viability, T/C [8] 71.6% | viability, T/C [9] 64.5% | viability, T/C [10] 56.8% | viability, T/C [11] 16.2% | viability, T/C [13] 76% | viability, T/C [14] 67.6% | viability, T/C [15] 74.3% | viability, T/C [16] 62.6% | viability, T/C [17] 14.1% | viability, T/C [19] 75.3% | viability, T/C [20] 74.7% | viability, T/C [21] 66% | viability, T/C [22] 58.1% | viability, T/C [23] 11.2% | viability, T/C [25] 86% | viability, T/C [26] 78.8% | viability, T/C [27] 66.3% | viability, T/C [28] 55.5% | viability, T/C [29] 15%
1.2 µM: IC50 (second compound 0.316 µM)
1.18 µM: IC50 (second compound 0.0316 µM)

C=CC(=O)N1CCN(c2nc(=O)n(-c3c(C)ccnc3C(C)C)c3nc(-c4c(O)cccc4F)c(F)cc23)C(C)C1 (stereo not given) + CNC(C)C(=O)NC1CN(S(=O)(=O)c2cccc(S(=O)(=O)N3CCC4CCC(C(=O)NC(c5ccccc5)c5ccccc5)N4C(=O)C(NC(=O)C(C)NC)C3)c2)CCC2CCC(C(=O)NC(c3ccccc3)c3ccccc3)N2C1=O
> 10 µM: IC50 (second compound 0.01 µM) | IC50 (second compound 0.0316 µM) | IC50 (second compound 0.1 µM) | IC50 (second compound 0.316 µM) | IC50 (second compound 1 µM)
inactive: viability, T/C [1] 84.2% | viability, T/C [2] 96% | viability, T/C [3] 75% | viability, T/C [4] 74.6% | viability, T/C [5] 77.8% | viability, T/C [6] 64.6% | viability, T/C [7] 83.5% | viability, T/C [8] 77.9% | viability, T/C [9] 70.5% | viability, T/C [10] 67% | viability, T/C [11] 72.2% | viability, T/C [12] 62.9% | viability, T/C [13] 86% | viability, T/C [14] 79.4% | viability, T/C [15] 84.5% | viability, T/C [16] 77.6% | viability, T/C [17] 70.4% | viability, T/C [18] 67.6% | viability, T/C [19] 89.4% | viability, T/C [20] 83.3% | viability, T/C [21] 80.7% | viability, T/C [22] 73.8% | viability, T/C [23] 77.2% | viability, T/C [24] 75.5% | viability, T/C [25] 90.6% | viability, T/C [26] 78.8% | viability, T/C [27] 85.4% | viability, T/C [28] 77% | viability, T/C [29] 72.2% | viability, T/C [30] 69.7%

CCN1C(C(=O)NC23CCC(C(=O)O)(CC2)CC3)C(c2cccc(Cl)c2F)C2(C(=O)Nc3cc(Cl)ccc32)C12CCCCC2 (stereo not given) + CNC(C)C(=O)NC1CN(S(=O)(=O)c2cccc(S(=O)(=O)N3CCC4CCC(C(=O)NC(c5ccccc5)c5ccccc5)N4C(=O)C(NC(=O)C(C)NC)C3)c2)CCC2CCC(C(=O)NC(c3ccccc3)c3ccccc3)N2C1=O
active: viability, T/C [35] 8.7% | viability, T/C [36] 3.12% | viability, T/C [41] 7.36% | viability, T/C [42] 1.14% | viability, T/C [48] 1.93% | viability, T/C [54] 5.81% | viability, T/C [59] 4.68% | viability, T/C [60] 1.29%
0.173 µM: IC50 (second compound 0.1 µM) | IC50 (second compound 0.316 µM)
0.193 µM: IC50 (second compound 0.01 µM)
0.15 µM: IC50 (second compound 1 µM)
inactive: viability, T/C [31] 88.1% | viability, T/C [32] 90.9% | viability, T/C [33] 72.2% | viability, T/C [34] 35.9% | viability, T/C [37] 90.8% | viability, T/C [38] 83.9% | viability, T/C [39] 62% | viability, T/C [40] 32.4% | viability, T/C [43] 97.8% | viability, T/C [44] 87.8% | viability, T/C [45] 67.2% | viability, T/C [46] 35.1% | viability, T/C [47] 9.87% | viability, T/C [49] 101% | viability, T/C [50] 89.7% | viability, T/C [51] 67.1% | viability, T/C [52] 35.8% | viability, T/C [53] 9.28% | viability, T/C [55] 100% | viability, T/C [56] 82.1% | viability, T/C [57] 64.8% | viability, T/C [58] 32.3%
0.151 µM: IC50 (second compound 0.0316 µM)

Cc1nc(N2CCC3(CC2)COC(C)C3N)c(CO)nc1Sc1ccnc(N)c1Cl (stereo not given) + CNC(C)C(=O)NC1CN(S(=O)(=O)c2cccc(S(=O)(=O)N3CCC4CCC(C(=O)NC(c5ccccc5)c5ccccc5)N4C(=O)C(NC(=O)C(C)NC)C3)c2)CCC2CCC(C(=O)NC(c3ccccc3)c3ccccc3)N2C1=O
1.55 µM: IC50 (second compound 0.0316 µM)
inactive: viability, T/C [31] 102% | viability, T/C [32] 101% | viability, T/C [33] 82.3% | viability, T/C [34] 71.6% | viability, T/C [35] 66.8% | viability, T/C [36] 48.7% | viability, T/C [37] 95.7% | viability, T/C [38] 90.2% | viability, T/C [39] 81.6% | viability, T/C [40] 72.2% | viability, T/C [41] 53.1% | viability, T/C [42] 44% | viability, T/C [43] 97.4% | viability, T/C [44] 92.7% | viability, T/C [45] 87.8% | viability, T/C [46] 68.5% | viability, T/C [47] 56.2% | viability, T/C [48] 59.9% | viability, T/C [49] 96.1% | viability, T/C [50] 93.5% | viability, T/C [51] 91% | viability, T/C [52] 75.8% | viability, T/C [53] 63.7% | viability, T/C [54] 50% | viability, T/C [55] 94.3% | viability, T/C [56] 87.7% | viability, T/C [57] 78.6% | viability, T/C [58] 72.3% | viability, T/C [59] 59.8% | viability, T/C [60] 52.1%
> 3 µM: IC50 (second compound 0.01 µM) | IC50 (second compound 0.1 µM) | IC50 (second compound 0.316 µM) | IC50 (second compound 1 µM)
